Experimental data as given in ChEMBL document CHEMBL1201862, “PubChem BioAssay data set” (2004).
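All cell lines were grown in 96-well plates and treated with compound for 48 hours. GI50: concentration for 50% inhibition of growth.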 Active and inactive are the calls of the source. Cut-off read from the data, not from the text of the source: active = GI50 up to about 1.1 µM and inactive = higher.

Columns and labels:
Assay in all cases: growth of human tumour cells (NCI), 48 h
NCI/ADR-RES = test system: NCI/ADR-RES
786-0 = test system: 786-0
UO-31 = test system: UO-31
CCRF-CEM = test system: CCRF-CEM
HL-60 = test system: HL-60
RXF 393 = test system: RXF 393
BT-549 = test system: BT-549
NCI-H460 = test system: NCI-H460
TK-10 = test system: TK-10
KM12 = test system: KM12
CAKI-1 = test system: CAKI-1
HCC 2998 = test system: HCC 2998
SF-268 = test system: SF-268
SF-295 = test system: SF-295
HCT-116 = test system: HCT-116
RPMI-8226 = test system: RPMI-8226
HCT-15 = test system: HCT-15
EKVX = test system: EKVX
M14 = test system: M14
SNB-75 = test system: SNB-75
COLO 205 = test system: COLO 205
SK-MEL-28 = test system: SK-MEL-28
DU-145 = test system: DU-145
SW-620 = test system: SW-620
A549 = test system: A549
SNB-19 = test system: SNB-19
HOP-92 = test system: HOP-92
MCF7 = test system: MCF7
OVCAR-3 = test system: OVCAR-3
OVCAR-8 = test system: OVCAR-8
OVCAR-5 = test system: OVCAR-5
SK-MEL-2 = test system: SK-MEL-2
MDA-MB-435 = test system: MDA-MB-435
PC-3 = test system: PC-3
OVCAR-4 = test system: OVCAR-4
SN12C = test system: SN12C
MDA-MB-231 = test system: MDA-MB-231
A498 = test system: A498
SK-MEL-5 = test system: SK-MEL-5
UACC-62 = test system: UACC-62
K562 = test system: K562
SF-539 = test system: SF-539
LOX IMVI = test system: LOX IMVI
NCI-H226 = test system: NCI-H226
NCI-H522 = test system: NCI-H522
Hs-578T = test system: Hs-578T
U-251 = test system: U-251
MOLT-4 = test system: MOLT-4
UACC-257 = test system: UACC-257
HT-29 = test system: HT-29
T47D = test system: T47D
MDA-N = test system: MDA-N
HOP-62 = test system: HOP-62
SK-OV-3 = test system: SK-OV-3
ACHN = test system: ACHN
IGROV-1 = test system: IGROV-1
Malme-3M = test system: Malme-3M
NCI-H23 = test system: NCI-H23

For Cc1c(C)c(C)c(CSC(=N)N)c(C)c1C, the GI50 (NCI/ADR-RES) was 15.2 µM (inactive), the GI50 (786-0) was 15.9 µM (inactive) and the GI50 (UO-31) was 6.52 µM (inactive). The GI50 (CCRF-CEM) was 15.5 µM (inactive), the GI50 (HL-60) was 8.57 µM (inactive) and the GI50 (RXF 393) was 17.5 µM (inactive). The GI50 (BT-549) was 16.4 µM (inactive), the GI50 (NCI-H460) was 13.2 µM (inactive) and the GI50 (TK-10) was 14.8 µM (inactive). The GI50 (KM12) was 18.4 µM (inactive), the GI50 (CAKI-1) was 11.5 µM (inactive) and the GI50 (HCC 2998) was 14.7 µM (inactive). The GI50 (SF-268) was 18.3 µM (inactive), the GI50 (SF-295) was 7.52 µM (inactive) and the GI50 (HCT-116) was 12.7 µM (inactive). For the same molecule, the GI50 (RPMI-8226) was 12.6 µM (inactive), the GI50 (HCT-15) was 16.2 µM and the GI50 (EKVX) was 14.8 µM (inactive). For the same molecule, the GI50 (M14) was 10.8 µM (inactive), the GI50 (SNB-75) was 15.6 µM (inactive) and the GI50 (COLO 205) was 14.9 µM (inactive). The GI50 (SK-MEL-28) was 15.4 µM (inactive), the GI50 (DU-145) was 16.9 µM (inactive) and the GI50 (SW-620) was 15.6 µM (inactive). For the same molecule, the GI50 (A549) was 17.2 µM (inactive), the GI50 (SNB-19) was 14.6 µM (inactive) and the GI50 (HOP-92) was 14 µM (inactive). The GI50 (MCF7) was 17.1 µM (inactive), the GI50 (OVCAR-3) was 16.5 µM (inactive) and the GI50 (OVCAR-8) was 24.1 µM (inactive). The GI50 (OVCAR-5) was 14.5 µM (inactive), the GI50 (SK-MEL-2) was 14.6 µM (inactive) and the GI50 (MDA-MB-435) was 14.2 µM (inactive). For the same molecule, the GI50 (PC-3) was 12.2 µM (inactive), the GI50 (OVCAR-4) was 15.6 µM (inactive) and the GI50 (SN12C) was 16.3 µM (inactive). The GI50 (MDA-MB-231) was 14.1 µM (inactive), the GI50 (A498) was 16.2 µM (inactive) and the GI50 (SK-MEL-5) was 13.7 µM (inactive). The GI50 (UACC-62) was 11.9 µM (inactive), the GI50 (K562) was 12.2 µM (inactive) and the GI50 (SF-539) was 15.7 µM (inactive). For the same molecule, the GI50 (LOX IMVI) was 26.2 µM (inactive), the GI50 (NCI-H226) was 13.6 µM (inactive) and the GI50 (NCI-H522) was 16.3 µM (inactive). For the same molecule, the GI50 (Hs-578T) was 15.6 µM (inactive), the GI50 (U-251) was 13.6 µM (inactive) and the GI50 (MOLT-4) was 15.5 µM (inactive). The GI50 (UACC-257) was 14.2 µM (inactive), the GI50 (HT-29) was 12.5 µM (inactive) and the GI50 (T47D) was 14.6 µM (inactive). For the same molecule, the GI50 (MDA-N) was 16.9 µM (inactive), the GI50 (HOP-62) was 15.5 µM (inactive) and the GI50 (SK-OV-3) was 16 µM (inactive). The GI50 (ACHN) was 16.6 µM (inactive), the GI50 (IGROV-1) was 33.6 µM (inactive) and the GI50 (Malme-3M) was 15.9 µM (inactive). The GI50 (NCI-H23) was 16.5 µM (inactive).
